Measured values reported in patent publication US8697867B2, “Cross-linked cyclic amine compounds and agents for pest control” (Nippon Soda Co., Ltd., priority 2005, dated 2014).

How the values were obtained:
Panonychus citri = experiment: Effectiveness against Panonychus citri (mandarin orange leaf in petri dish); type: in vivo; conditions: 125 ppm emulsion dilution; adults removed 3 days after application; examined on the 11th day; 25° C., 65% humidity
Procedure: 10 adult female Panonychus citri were inoculated on the leaf of a mandarin orange, which was placed in a petri dish. After the inoculation, the drug solution, which was prepared by following the method of the emulsion shown in Example 2 of the drugs and by diluting with water to achieve the compound concentration of 125 ppm, was applied using a rotary spreading tower. The dish was placed in a temperature-controlled room where the temperature and humidity were set to 25° C. and 65% respectively, adults were removed 3 days after the application, and whether eggs laid during these 3 days could grow to become adults was examined on the 11th day.

Tetranychus urticae = experiment: Effectiveness against Tetranychus urticae (adulticidal rate on common bean leaf); type: in vivo; conditions: 125 ppm wettable powder dilution; adult females resistant to organophosphorus pesticides; 3 days after application; 25° C., 65% humidity

SMILES | insecticidal rate (whether eggs laid during 3 days could grow to adults) (Panonychus citri) | insecticidal rate (adulticidal rate) (Tetranychus urticae)
CCCOc1cc(C(F)(F)F)ccc1OC1CC2CCC(C1)N2c1ccc(C(F)(F)F)c(F)c1 (stereo not drawn) [Compound 4-70, 3α-[2-n-propoxy-4-(trifluoromethyl)phenoxy]-8-[3-fluoro-4-(trifluoromethyl)phenyl]-8-azabicyclo[3.2.1]octane] | 100% | 100%
FC(F)(F)c1ccc(OC2CC3CCC(C2)N3c2ccc(C(F)(F)F)cn2)nc1 (stereo not drawn) [Compound 2-3, 3α-(5-trifluoromethyl-2-pyridyloxy)-8-(5-trifluoromethyl-pyridin-2-yl)-8-azabicyclo[3.2.1]octane] |  | 100%
